The text below walks through data of ChEMBL document CHEMBL1201862, “PubChem BioAssay data set” (2004).

Test systems include NCI-H460; SW-620; HL-60; ACHN; RPMI-8226; OVCAR-5; U-251; SF-268; SK-MEL-5; SK-MEL-2; SNB-75; SK-OV-3.
Common to all, as to test: growth of human tumour cells (NCI), 48 h

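Compound exposure: 48 hours, 5 concentrations, 96-well plates. At the GI50, growth is halved.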 The source made the active and inactive calls. Cut-off read from the data, not from the text of the source: active = GI50 up to about 1.1 µM and inactive = higher.

Consider `c1cnc2c3[nH]cc4[nH]c5ccccc5c4c-3nc2c1`, for which the GI50 in the test on NCI-H460 is 35.6 µM (inactive); with SW-620, 55.2 µM (inactive); in the test on HL-60 it was 76 µM (inactive); with ACHN, 61.4 µM (inactive); in the test on RPMI-8226 it was 27.6 µM (inactive); in the test with OVCAR-5, > 100 µM (inactive). The GI50 in the test with U-251 is 75.3 µM (inactive); with SF-268, 84.5 µM (inactive); in the test on SK-MEL-5, > 100 µM (inactive); in the test on SK-MEL-2, 30.7 µM (inactive); in the test with SNB-75, 51.9 µM (inactive); with SK-OV-3, > 100 µM (inactive).

For `Cc1[nH]c2ccccc2c1/C=C/c1c(C)[nH]c2ccccc12`, the GI50 in the test on NCI-H460, in the test with SW-620, with HL-60, with ACHN, in the test on RPMI-8226 and in the test with OVCAR-5 was > 100 µM (inactive) in each case. In addition, the GI50 was > 100 µM (inactive) with U-251; > 100 µM (inactive) in the test with SK-MEL-5; > 100 µM (inactive) in the test on SK-MEL-2; 31 µM (inactive) in the test with SNB-75; > 100 µM (inactive) in the test with SK-OV-3.

Take `Fc1cccc(C2SCc3nc4ccccc4n32)c1` (stereo not drawn): the GI50 was 39.6 µM (inactive) with NCI-H460; 54.8 µM (inactive) in the test on SW-620; 11 µM (inactive) with HL-60; 24.4 µM (inactive) with ACHN; 23.5 µM (inactive) in the test on RPMI-8226; 17.3 µM (inactive) in the test on OVCAR-5. The GI50 in the test on SF-268 was 75.3 µM (inactive); in the test on SK-MEL-5, 12.7 µM (inactive); in the test with SK-MEL-2, 42.3 µM (inactive); in the test with SNB-75, 36.4 µM (inactive); with SK-OV-3, 50.8 µM (inactive).

Regarding `Nc1nc(S)nc(C(=O)Nc2nccs2)c1-c1ccccc1`, the GI50 in the test on NCI-H460, in the test with SW-620, in the test on HL-60, in the test on ACHN, in the test on RPMI-8226 and in the test on OVCAR-5 was > 100 µM (inactive) in each case. The GI50 with U-251, in the test with SF-268, in the test with SK-MEL-5, in the test with SK-MEL-2, in the test with SNB-75 and in the test with SK-OV-3 was > 100 µM (inactive) each time.

Turning to `O=[N+]([O-])c1ccc(-c2noc(-c3ccc(Cl)cc3)c2C2=NCCN2)cc1`, the GI50 with NCI-H460, in the test with SW-620, in the test with HL-60, in the test on ACHN, with RPMI-8226 and with OVCAR-5 was > 100 µM (inactive) throughout. For the same compound, the GI50 in the test on U-251, in the test with SF-268, in the test on SK-MEL-5 and with SK-MEL-2 was > 100 µM (inactive) each time.

As for `Cc1ccc2sc3cc(=O)cc(C)c-3nc2c1`, the GI50 with NCI-H460 is > 100 µM (inactive); with SW-620, > 100 µM (inactive); in the test on HL-60, 13.8 µM (inactive); in the test with ACHN, 29.2 µM (inactive); in the test with OVCAR-5, > 100 µM (inactive); with U-251 it was 32.7 µM (inactive). Moreover, the GI50 with SF-268 was 47.2 µM (inactive); in the test with SK-MEL-5, 16.6 µM (inactive); with SK-MEL-2 it was > 100 µM (inactive); in the test on SNB-75 it was > 100 µM (inactive); with SK-OV-3, > 100 µM (inactive).

For the compound `N#C/C(=C1\OC(=O)C(c2ccc(Br)cc2)=C1O)c1ccc(Br)cc1`, the GI50 in the test on NCI-H460 is 15.7 µM (inactive); with SW-620 it was 14.3 µM (inactive); with HL-60, 11.6 µM (inactive); in the test on ACHN, 15.7 µM (inactive); in the test on RPMI-8226 it was 15.1 µM (inactive); with OVCAR-5 it was 19.1 µM (inactive). Further, the GI50 was 13.2 µM (inactive) in the test with U-251, 14.7 µM (inactive) with SF-268, 17.6 µM (inactive) in the test on SNB-75 and 18.5 µM (inactive) with SK-OV-3.

Regarding `O=C1c2ccccc2C(=O)N1C/C=N/NS(=O)(=O)c1ccc(Br)cc1`, the GI50 in the test on NCI-H460, in the test on SW-620, in the test on HL-60, with ACHN, with RPMI-8226 and with OVCAR-5 was > 100 µM (inactive) throughout. In addition, the GI50 with U-251, in the test on SF-268, in the test on SK-MEL-5, in the test on SK-MEL-2, in the test on SNB-75 and with SK-OV-3 was > 100 µM (inactive) throughout.

On to `Cc1c(NC(=O)C(C)(C)Br)c(=O)oc2c(C)c3occc(=O)c3cc12`, for which the GI50 in the test with NCI-H460 is 58.9 µM (inactive); with SW-620, > 100 µM (inactive); with HL-60, > 100 µM (inactive); in the test on ACHN, 45.8 µM (inactive); with RPMI-8226, 45.3 µM (inactive); in the test with U-251, 72.9 µM (inactive). Moreover, the GI50 was 64.9 µM (inactive) in the test with SF-268, 29.7 µM (inactive) in the test on SK-MEL-5, 59.6 µM (inactive) in the test with SK-MEL-2 and 35.7 µM (inactive) in the test on SNB-75.

For `CC(=O)OC1CCn2nnc(CO)c21` (stereo not drawn), the GI50 in the test with NCI-H460, with SW-620, in the test with RPMI-8226, in the test on OVCAR-5, in the test with U-251 and in the test with SK-MEL-5 was > 100 µM (inactive) each time. In addition, the values for the GI50 in the test with SK-MEL-2, in the test on SNB-75 and in the test on SK-OV-3 were > 100 µM (inactive), 23.8 µM (inactive) and > 100 µM (inactive), respectively.

`COc1cc2c(oc(=O)c3c4oc([Si](C)(C)C)cc4cc(OC)c23)c2cccc(OCc3ccccc3)c12`: the GI50 in the test with NCI-H460 is 53.7 µM (inactive); with SW-620 it was 68.9 µM (inactive); in the test on HL-60, 43.3 µM (inactive); in the test on ACHN, 51.4 µM (inactive); in the test with RPMI-8226, 28.4 µM (inactive); with OVCAR-5, > 70.3 µM (inactive). For the same compound, the GI50 in the test with SF-268 was 26.5 µM (inactive); in the test with SK-MEL-5, 38 µM (inactive); in the test on SK-MEL-2, 33.7 µM (inactive); with SNB-75, 19.7 µM (inactive); with SK-OV-3, 38.3 µM (inactive).

Take `Cc1cccc(-c2nc3c(C(=O)NCCN(C)C)cccc3[nH]2)c1`: the GI50 in the test on NCI-H460 was 0.369 µM (active); in the test on SW-620 it was 0.352 µM (active); in the test on HL-60 it was 2.29 µM (inactive); in the test with ACHN, 2.26 µM (inactive); in the test with RPMI-8226 it was 3.12 µM (inactive); in the test with OVCAR-5, 1.88 µM (inactive). Also, the GI50 with U-251 was 1.49 µM (inactive); in the test with SF-268 it was 1.58 µM (inactive); in the test with SK-MEL-5 it was 1.65 µM (inactive); in the test on SK-MEL-2, 1.86 µM (inactive); in the test on SNB-75, 2.2 µM (inactive); in the test with SK-OV-3, 1.49 µM (inactive).

In the case of `COC(=O)CCC(=O)N1Cc2cc(C)ccc2N(C(=O)CCC(=O)OC)Cc2cc(C)ccc21`, the GI50 in the test with NCI-H460, in the test with SW-620, in the test with HL-60, in the test with ACHN, in the test with RPMI-8226 and with OVCAR-5 was > 100 µM (inactive) each time. In addition, the GI50 in the test with U-251, with SF-268, with SK-MEL-5, in the test with SK-MEL-2 and in the test on SK-OV-3 was > 100 µM (inactive) each time.

In the case of `O=c1[nH]c(=O)n(C2OC(CO)C(N(O)Cc3ccc(F)cc3)C2O)cc1Br` (stereo not drawn), the GI50 in the test on NCI-H460, in the test with SW-620, in the test with HL-60, with ACHN, with RPMI-8226 and with OVCAR-5 was > 100 µM (inactive) each time. Further, the GI50 with U-251, in the test with SF-268, in the test with SK-MEL-5, in the test on SNB-75 and in the test on SK-OV-3 was > 100 µM (inactive) throughout.

For the compound `O=C(Nc1nnc(S)[nH]1)C(=O)C(C(=O)c1ccc2ccccc2c1)C1OC(=O)c2ccccc21` (stereo not drawn), the GI50 was > 100 µM (inactive) with NCI-H460; 28.9 µM (inactive) with SW-620; > 100 µM (inactive) with ACHN; 7.69 µM (inactive) in the test on RPMI-8226; 44.3 µM (inactive) with OVCAR-5; 8.15 µM (inactive) in the test on U-251. For the same compound, the GI50 is 16.6 µM (inactive) in the test with SF-268; 18.1 µM (inactive) with SK-MEL-5; 23 µM (inactive) in the test on SK-MEL-2; 13.8 µM (inactive) with SNB-75; 23.4 µM (inactive) in the test on SK-OV-3.

`CCOC(=O)Cn1c(=O)[nH]c(=O)c2[nH]cnc21`: the GI50 with NCI-H460, with SW-620, in the test with HL-60, with ACHN, in the test on OVCAR-5 and with U-251 was > 100 µM (inactive) each time. The GI50 in the test on SF-268, in the test with SK-MEL-5, in the test on SK-MEL-2, in the test on SNB-75 and in the test with SK-OV-3 was > 100 µM (inactive) each time.

For the compound `CS(=O)(=O)OCCCOS(C)(=O)=O`, the GI50 in the test on NCI-H460, with SW-620, in the test with HL-60, with ACHN, with RPMI-8226 and in the test with OVCAR-5 was > 100 µM (inactive) throughout. In addition, the GI50 in the test with U-251, with SF-268, in the test on SK-MEL-5, with SK-MEL-2, in the test on SNB-75 and with SK-OV-3 was > 100 µM (inactive) throughout.

Regarding `COC(=O)CC(=O)OC1C[C@@H]2CCC3C(C)(C)CCC[C@]3(C)C23CC[C@@]1(C)C3` (stereo partly drawn), the GI50 with NCI-H460 is 19.8 µM (inactive); in the test with SW-620, 18.2 µM (inactive); in the test on HL-60, > 100 µM (inactive); in the test with ACHN, 17.5 µM (inactive); in the test with RPMI-8226 it was 45.9 µM (inactive); in the test with OVCAR-5, 16.1 µM (inactive). Besides, the GI50 is 17.4 µM (inactive) with U-251; 18.5 µM (inactive) with SF-268; 17.6 µM (inactive) in the test on SK-MEL-5; 27.9 µM (inactive) in the test with SNB-75; 24.5 µM (inactive) in the test on SK-OV-3.
